In US10485841B2, “Method for producing dry extracts” (Bionorica SE, priority 2011, dated 2019):

Legend:
[1] = system: carrageen-induced paw oedema; test: carrageen-induced paw oedema in rats (Example 2); assay type: in vivo, rat; conditions: 30 minutes following carrageen injection, FIG. 3
Description: (§1) The anti-inflammatory activity of Sinupret could be confirmed in the animal model. For example, carrageen-induced paw oedema in rats (Male Wistar Han rats, 220-230 g) was selected as the test model. In this model, it was possible to examine the anti-inflammatory effect of test substances by measuring their inhibitory effect on the paw oedema or pleuritis caused by carrageen. The following were used as reference substances: (RS)-2-[4-(2-methylpropyl)phenyl]propanoic acid (Ibuprofen®) and 2-[1-(4-chlorobenzoyl)-5-methoxy-2-methyl-1H-indol-3-yl] acetic acid (indomethacin, “indo”). In the present tests, groups of 10 rats in each case were treated either with Ibuprofen®, indomethacin, Sinupret® dry extract (SIN TR) or Sinupret® drug mixture (SIN, as commercially available) and were injected one hour later with carrageen. The inhibition of the oedema formation by the test and reference substances was determined at various moments in time after carrageen injection, wherein the paw volume of animals treated only with carrageen was used as a control (vehicle=blank control). The results of these tests are presented in Tables 1 and 2 and in FIGS. 3 to 6 and will be explained hereinafter.

[2] = system: carrageen-induced pleuritis; test: carrageen-induced pleuritis in rats; assay type: in vivo, rat; conditions: 5 mg/kg
Description: as §1
Rats (10 per group) were each treated with 100 mg/kg or 500 mg/kg of SIN and by way of comparison with 5 mg/kg of indomethacin and blank and were injected 1 hour later with carrageen.
“Inflammatory cells” correlates to PMN (polymorphonuclear neutrophils) accumulation/infiltration.
Statistics: average+/−SEM, n=10, ** p<0.01; ***p<0.001 vs vehicle (blank) (Tukey Test), p<0.05 is statistically significant.
Rats (10 per group) were each treated with 100 mg/kg or 500 mg/kg of SIN TR and by way of comparison with 5 mg/kg of indomethacin and blank and were injected one hour later with carrageen.

[3] = 4 h after carrageen, mean ± SEM, n=10

CC(C)Cc1ccc(C(C)C(=O)O)cc1 (racemic) [Ibuprofen®, (RS)-2-[4-(2-methylpropyl)phenyl]propanoic acid]
inhibition of paw oedema [1]: still did not show any anti-inflammatory effect

COc1ccc2c(c1)c(CC(=O)O)c(C)n2C(=O)c1ccc(Cl)cc1 [Indomethacin, 2-[1-(4-chlorobenzoyl)-5-methoxy-2-methyl-1H-indol-3-yl] acetic acid]
exudate volume, inhibition vs vehicle ([2]; 4 h): (96%) | inflammatory cells, inhibition vs vehicle ([2]; 4 h): (70%) | IL1β [2, 3]: 3.17 ± 0.18 ng/rat | LTB4 [2, 3]: 0.43 ± 0.02 ng/rat | PGE2 [2, 3]: <0.125 ng/rat | TNFα [2, 3]: 5.48 ± 0.28 ng/rat | exudate volume [2, 3]: 0.009 ± 0.003 mL | inflammatory cells × 10^6 [2, 3]: 11.4 ± 0.93 × 10^6
